Conditions: for specific volume: Gas, isochoric method; for mass density: Liquid, Vibrating tube method

F/C=C(\F)C(F)(F)F [(Z)-1,2,3,3,3-pentafluoro-1-propene]
Conditions | mass density [kg/m3] | specific volume [m3/kg]
263.15 K, 135.2 kPa | – | 0.115
268.15 K, 138.3 kPa | – | 0.115
273.14 K, 141.3 kPa | – | 0.116
273.15 K, 202.4 kPa | – | 0.079
278.15 K, 144.3 kPa | – | 0.116
278.15 K, 207 kPa | – | 0.079
282.83 K, 301.1 kPa | – | 0.054
283.14 K, 12501 kPa | 1378.7 | –
283.15 K, 211.5 kPa | – | 0.079
283.15 K, 510 kPa | 1329.6 | –
283.15 K, 604 kPa | 1330.1 | –
283.15 K, 1003 kPa | 1332 | –
283.15 K, 1499 kPa | 1334.5 | –
283.15 K, 1997 kPa | 1336.8 | –
283.15 K, 2500 kPa | 1339.1 | –
283.15 K, 5000 kPa | 1350.2 | –
283.15 K, 7499 kPa | 1360.3 | –
283.15 K, 9998 kPa | 1369.8 | –
283.15 K, 15001 kPa | 1387 | –
283.15 K, 17501 kPa | 1395 | –
283.15 K, 20001 kPa | 1402.5 | –
283.15 K, 22497 kPa | 1409.9 | –
283.15 K, 25000 kPa | 1417 | –
283.16 K, 147.3 kPa | – | 0.116
283.16 K, 27503 kPa | 1423.9 | –
283.16 K, 29999 kPa | 1430.3 | –
283.16 K, 32498 kPa | 1436.2 | –
283.16 K, 35004 kPa | 1442.4 | –
287.91 K, 307.5 kPa | – | 0.054
288.15 K, 150.2 kPa | – | 0.116
288.15 K, 215.6 kPa | – | 0.079
292.78 K, 314.1 kPa | – | 0.054
293.15 K, 152.7 kPa | – | 0.116
293.15 K, 220 kPa | – | 0.079
293.15 K, 470 kPa | 1293.2 | –
293.15 K, 598 kPa | 1293.9 | –
293.15 K, 1000 kPa | 1296.2 | –
293.15 K, 1500 kPa | 1299.1 | –
293.15 K, 2000 kPa | 1301.9 | –
293.15 K, 2500 kPa | 1304.6 | –
293.15 K, 5000 kPa | 1317.4 | –
293.15 K, 7500 kPa | 1329 | –
293.15 K, 10001 kPa | 1339.8 | –
293.15 K, 12500 kPa | 1349.7 | –
293.15 K, 14999 kPa | 1359 | –
293.15 K, 17500 kPa | 1367.8 | –
293.15 K, 20000 kPa | 1376 | –
293.15 K, 22500 kPa | 1383.9 | –
293.15 K, 25000 kPa | 1391.4 | –
293.15 K, 27499 kPa | 1398.5 | –
293.15 K, 30000 kPa | 1405.4 | –
293.15 K, 32500 kPa | 1412 | –
293.15 K, 34999 kPa | 1418.5 | –
297.14 K, 418.9 kPa | – | 0.04
298.15 K, 155.7 kPa | – | 0.116
298.15 K, 224.3 kPa | – | 0.079
298.15 K, 498.5 kPa | – | 0.032
298.47 K, 320.7 kPa | – | 0.054
303.14 K, 327 kPa | – | 0.054
303.14 K, 510.2 kPa | – | 0.032
303.15 K, 158.7 kPa | – | 0.116
303.15 K, 228.2 kPa | – | 0.079
303.15 K, 430 kPa | – | 0.04
303.15 K, 700 kPa | 1255.3 | –
303.15 K, 1000 kPa | 1257.4 | –
303.15 K, 1500 kPa | 1260.9 | –
303.15 K, 2000 kPa | 1264.3 | –
303.15 K, 7500 kPa | 1296.6 | –
303.15 K, 9999 kPa | 1308.8 | –
303.15 K, 12500 kPa | 1320.1 | –
303.15 K, 20000 kPa | 1349.2 | –
303.15 K, 22501 kPa | 1357.8 | –
303.15 K, 24999 kPa | 1366 | –
303.15 K, 27500 kPa | 1374.4 | –
303.16 K, 2499 kPa | 1267.8 | –
303.16 K, 5000 kPa | 1283.2 | –
303.16 K, 14996 kPa | 1330.5 | –
303.16 K, 17500 kPa | 1340.2 | –
303.16 K, 30000 kPa | 1381.8 | –
303.16 K, 32500 kPa | 1388.8 | –
303.16 K, 35000 kPa | 1395.6 | –
308.12 K, 522.1 kPa | – | 0.032
308.14 K, 161.7 kPa | – | 0.116
308.14 K, 612.3 kPa | – | 0.027
308.15 K, 232.8 kPa | – | 0.079
308.15 K, 333.9 kPa | – | 0.054
308.15 K, 439 kPa | – | 0.04
312.86 K, 236.9 kPa | – | 0.079
313.13 K, 533.4 kPa | – | 0.032
313.14 K, 627 kPa | – | 0.027
313.14 K, 7500 kPa | 1262.1 | –
313.14 K, 10000 kPa | 1276.1 | –
313.15 K, 164.2 kPa | – | 0.116
313.15 K, 447.9 kPa | – | 0.04
313.15 K, 1000 kPa | 1216.2 | –
313.15 K, 1500 kPa | 1220.4 | –
313.15 K, 2008 kPa | 1224.6 | –
313.15 K, 5000 kPa | 1246.4 | –
313.15 K, 12501 kPa | 1288.9 | –
313.15 K, 15000 kPa | 1300.5 | –
313.15 K, 17497 kPa | 1311.3 | –
313.15 K, 20000 kPa | 1321.4 | –
313.15 K, 22500 kPa | 1330.8 | –
313.15 K, 25000 kPa | 1339.7 | –
313.15 K, 27500 kPa | 1348.1 | –
313.15 K, 30001 kPa | 1356.1 | –
313.15 K, 32500 kPa | 1363.7 | –
313.15 K, 35000 kPa | 1371 | –
313.16 K, 340.4 kPa | – | 0.054
313.16 K, 2501 kPa | 1228.3 | –
318.14 K, 346.9 kPa | – | 0.054
318.14 K, 641.3 kPa | – | 0.027
318.15 K, 166.8 kPa | – | 0.116
318.15 K, 241.3 kPa | – | 0.079
318.15 K, 457 kPa | – | 0.04
318.23 K, 544.9 kPa | – | 0.033
323.14 K, 353.4 kPa | – | 0.054
323.14 K, 555.9 kPa | – | 0.033
323.14 K, 655.2 kPa | – | 0.027

Source: the NIST ThermoML archive (doi:10.1021/acs.jced.5b00562)
